Data from EP2891491A1, “Use of (r)-phenylpiracetam for the treatment of sleep disorders” (Merz Pharma GmbH & Co. KGaA, priority 2014, dated 2015).
Where “and” joins values, the source holds several entries; their conditions need not be identical. Identical values can stand only once.

Columns and labels:
[1] = target: T1, neuronal dopamine re-uptake transporter (Homo sapiens, UniProt Q01959); test: functional monoamine transporter assay: [3H]-dopamine uptake in CHO-K1 cells expressing dopamine transporters; assay type: cell-based; conditions: functional assays, read-out: affinity for the neuronal dopamine re-uptake transporter
T1 construct: expressed in transfected cells
T1 sequence (Q01959 whole entry): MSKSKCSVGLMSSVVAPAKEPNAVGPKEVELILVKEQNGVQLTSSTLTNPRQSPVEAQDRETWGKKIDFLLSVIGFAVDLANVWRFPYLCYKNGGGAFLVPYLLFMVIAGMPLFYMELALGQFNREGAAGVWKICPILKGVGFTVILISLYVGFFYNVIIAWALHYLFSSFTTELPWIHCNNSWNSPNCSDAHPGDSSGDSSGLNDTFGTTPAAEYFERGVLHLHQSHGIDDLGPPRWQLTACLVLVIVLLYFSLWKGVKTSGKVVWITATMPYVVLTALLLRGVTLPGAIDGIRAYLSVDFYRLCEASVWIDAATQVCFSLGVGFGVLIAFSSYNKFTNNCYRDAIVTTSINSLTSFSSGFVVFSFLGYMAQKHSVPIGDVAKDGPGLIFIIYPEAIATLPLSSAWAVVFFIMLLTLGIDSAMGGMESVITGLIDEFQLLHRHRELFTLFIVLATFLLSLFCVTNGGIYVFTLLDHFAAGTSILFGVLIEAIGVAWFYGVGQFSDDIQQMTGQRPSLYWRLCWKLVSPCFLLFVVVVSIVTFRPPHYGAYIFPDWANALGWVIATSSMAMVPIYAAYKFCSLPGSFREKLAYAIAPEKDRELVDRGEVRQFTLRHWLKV
Protocol: Using functional monoamine transporter assays, we determined the potential drug targets for (R)-phenylpiracetam.
Recombinant Chinese hamster ovary (CHO) cells CHO-K1 (ATCC® CCL-61 ™) cells stably expressing dopamine transporters are plated. The cells (2 x 10^5/ml) are pre-incubated with test compound and/or vehicle in modified Tris-HEPES buffer pH 7.1 at 25°C for 20 min and 50 nM [^3H]-dopamine is then added for an additional 15 min incubation period. Non-specific signal is determined in the presence of 10 µM nomifensine. Cells are then solubilized with 1% SDS lysis buffer. Reduction of [^3H]-dopamine uptake by 50 percent or more (≥50%) relative to vehicle controls indicates significant inhibitory activity. Compounds are screened at 10, 1, 0.1, 0.01 and 0.001 µM. These same concentrations are concurrently applied to a separate group of untreated cells and evaluated for possible compound-induced cytotoxicity only if significant inhibition of uptake is observed.

[2] = tested on: extracellular dopamine levels in rat striatum; test: brain microdialysis: extracellular dopamine levels in rat striatum; assay type: in vivo, rats; conditions: 100 mg/kg i.p.
Protocol: EXAMPLE 2: Assessment of (R)-phenylpiracetam on extracellular dopamine levels in rat striatum using brain microdialysis - Fig. 1
(R)-Phenylpiracetam was dissolved in saline and injected intraperitoneally (i.p).
Adult male Sprague-Dawley rats (n = 5, ∼300 g; Harlan, The Netherlands) were used for the experiments. After surgery animals were housed individually (cages 30 cm x 30 cm x 40 cm) with food and water was ad libitum available at standard conditions. The post-surgery interval for recovery was minimally 48 h.
Rats were anesthetized using isoflurane (2%, 800 ml/min O2), and placed in a stereotaxic frame (Kopf instruments, USA). […]
Concentrations of DA and DOPAC were determined in the same sample, by HPLC separation and electrochemical detection. DA and DOPAC were detected electrochemically using a potentiostate (Antec Leyden, model Intro, the Netherlands) fitted with a glassy carbon electrode set at +500 mV vs. Ag/AgCl (Antec Leyden, the Netherlands). Data was analyzed by Chromatography Data System (Shimadzu, class-vp, Japan) software. Concentrations were quantified by the external standard method.
After transmitter levels were stabilized, four consecutive pre-treatment microdialysis samples with less than 50% variation were taken as baseline and their mean was set at 100%. […] Transmitter concentration in each fraction was expressed as % ± SEM (standard error mean) of baseline.

rats = test: locomotor activity (horizontal activity) in rats; assay type: in vivo; conditions: i.p. 15 min before test, starting at the dose of 100 mg/kg
Protocol: EXAMPLE 4: Effect of (R)-phenylpiracetam on locomotor activity (horizontal activity) in rats - Fig. 3
Experimentally naive adult male Sprague-Dawley rats (230-300 g) are kept four per cage, in a room with controlled temperature (21 ± 1°C) and humidity. Food and water are available ad libitum and the animals are kept under an alternating 12 h / 12 h day-night cycle (lights on at 07.00) for at least 6 days before the experiments are started. Each animal is used only once. Experimental group consist of 8 animals per group.
Horizontal locomotor activity was measured in 8 perspex boxes (ENV-515-16, 43.2 cm x 43.2 cm x 30 cm), Med-Associates Inc.) equipped with 4 arrays of 16 infrared photobeams placed 3 cm above the floor. Distance travelled (DT) was used in further analysis as a measure of locomotion.
(R)-Phenylpiracetam was administered i. p. in a volume of 2 ml/kg in saline
Data with locomotor activity were analyzed by means of Kruskal-Wallis ANOVA on ranks followed, if significant, by rank sum test.

[3] = just slightly stronger with (R)- than with (S)-phenylpiracetam; cited from earlier work
[4] = model for depression; cited from earlier work

Compound: NC(=O)CN1C[C@@H](c2ccccc2)CC1=O [(R)-phenylpiracetam]
- IC50 [1]: ~13 µM and 13 µM
- concentration of dopamine in the striatum [2]: increases extracellular dopamine levels
- locomotor activity (horizontal activity) (rats): increases locomotor activity
- locomotor activity in the open-field test [3]: significant increase
- potency in the forced swim test [4]: only slightly more potent than (S)-phenylpiracetam
